Patent US20040249164A1, “Crystalline hydrates of nicotinic acid anilide and benzoyl anilide derivatives” (priority 2001, published 2004)

Legend:
[1] = Physical properties of anhydrate and hydrate (Table 1); type: physicochemical
Experimental: 2-Chloro-N-(4′-chlorobiphenyl-2-yl)nicotinamide was obtained at the end of the synthesis as hot xylenic solution. Upon cooling slowly, virtually all of the active ingredient crystallized from xylene. After filtration, residual xylene was removed by drying in a vacuum drying oven, whereby the active ingredient was obtained in the form of the anhydrate. The physical properties are compiled in Table 1.
1 g of 2-chloro-N-(4′-chlorobiphenyl-2-yl)nicotinamide anhydrate was dissolved in 20 ml of THF at 40° C. and the solution was then poured into 20 ml of water. The material which had precipitated was filtered off with suction and dried at 40° C. in a drying oven.
The physical properties of the 2-chloro-N-(4′-chlorobiphenyl-2-yl)nicotinamide monohydrate thus repared are shown in Tabelle 1.

[2] = Particle size of the formulation on storage (Malvern Mastersizer); type: physicochemical; settings: After eight milling passes, Dyno KDL mill
Experimental: 500 g of 2-chloro-N-(4′-chlorobiphenyl-2-yl)nicotinamide monohydrate were combined as described under A with adjuvants. After the mixture had been stirred briefly, it was pumped through a Dyno KDL mill (1.2 mm beads, milling space 1.2 l) at a rate of 2 l/h. The milling process was carried out without problems. No clogging of the mill or crystallization in the receiver was observed. After eight milling passes, a sufficiently fine particle size of 70% <2 μm (Malvern Mastersizer) was achieved, i.e. the particle diameter of 70% of the particles is <2 μm.
The data shown are the percentage of the particles which are smaller than 2 μm.

O=C(Nc1ccccc1-c1ccc(Cl)cc1)c1cccnc1Cl [Anhydrate, 2-chloro-N-(4′-chlorobiphenyl-2-yl)nicotinamide]
Water content [1]: <1%

O.O=C(Nc1ccccc1-c1ccc(Cl)cc1)c1cccnc1Cl [Hydrate, 2-chloro-N-(4′-chlorobiphenyl-2-yl)nicotinamide monohydrate]
particle size, share of particles <2 μm [2]: 70 % <2 μm | Water content [1]: 5%
